Laboratory results as given in EP3928777A1, “4,5-DIHYDRO-OXAZOL-2-YLAMINE DERIVATIVES FOR USE IN THE PREVENTION OR TREATMENT OF ALCOHOL USE DISORDER” (Instytut Biologii Doswiadczalnej im. Marcelego Nenckiego …, priority 2020, dated 2021).

Experiments:
[1] = system: C57BL/6 mouse; assay: Amount of alcohol (20%) consumed by alcohol-trained mice in IntelliCages after intraperitoneal injection; assay type: in vivo; conditions: versus vehicle control group
Description: The study involved 30 C57BL/6 mouse subjects that had undergone a two-month, earlier adaptive training to drink alcohol (20%) in IntelliCages (Fig. 1), under typical living conditions (temperature: 21-23°C, humidity 50-60%, 12/12 light-dark cycle). During the adaptive training, the mice had constant access to food and water except for: • 1. 25 days, during which, 2 hours after the beginning of the dark phase, all water bottles were replaced for 3 hours with bottles containing 20% alcohol (no access to clean water at all). • 2. 15 days, during which, 2 hours after the beginning of the dark phase, half of the water bottles were replaced for 3 hours with bottles containing 20% alcohol (possibility to choose water or alcohol). […]
During the adaptive training, the amount of alcohol consumed was recorded for each animal separately. […] The degree of preference for drinking alcohol was determined according to the following criteria: • high-drinkers: on average from 100 to 200 licks of alcohol, with a choice between water and alcohol (3 hour session); • medium-drinkers: on average from 50 to 100 licks of alcohol, with a choice between water and alcohol; (3 hour session); • low-drinkers: on average from 0 to 50 licks of alcohol, with a choice between water and alcohol; (3 hour session); […]

[2] = system: mice; assay: Motivation to drink alcohol: progressive nose-poke test in IntelliCages; assay type: in vivo; conditions: 10 mg/kg bw intraperitoneal, 20% alcohol, attempts measured over 20 hours, 3 tests, Fig. 5
Description: The effect of RO5256390 administration on motivation to drink alcohol was also assessed experimentally. In this experiment a new group of animals was used, these were 13 animals that underwent a three-month adaptive training to drink alcohol (20%) in IntelliCages. The motivation to drink alcohol was then assessed for each animal by conducting 3 tests. For the purposes of the test, the IntelliCage was designed in such a way that access to alcohol for a given animal was only possible, with a certain number of so-called "nose-pokes", meaning cutting the laser beam with the snout when trying to reach the alcohol bottle. In order to drink alcohol, the animal must first cut the beam twice, then 4, 8, 12, 16 times etc. After the required number of nose-pokes are made, the alcohol-blocking door opens. The more attempts to get into the alcohol bottle and the greater the number of beam intersection events achieved, the greater the motivation to drink alcohol. Each test started when half of the water bottles was replaced with 20% alcohol bottles. During the next 20 hours the number of drinking attempts was measured for each animal. After 3 series of motivational tests, which were carried out at weekly intervals, the animals were divided into two experimental groups. […]

[3] = Solubility in the injection vehicle; assay type: physicochemical; conditions: solution of 5% ethanol and 10% collyphor, for an exemplary dose of 10 mg/kg body weight, intraperitoneal administration
Description: (§1) The compound of Formula II is additionally easy to prepare and formulate (well soluble in a solution of 5% ethanol and 10% collyphor for an exemplary dose of 10 mg/kg body weight in an intraperitoneal administration), it appears to be non-toxic in animal models.

[4] = system: animal models; assay: Toxicity in animal models; assay type: in vivo
Description: as §1

[5] = system: cocaine-dependent or binge eating animals; conditions: cited from earlier work

CC[C@@H](C[C@H]1COC(N)=N1)c1ccccc1 [RO5256390]
amount of consumed alcohol during 20 hours after injection ([1]; 10 mg/kg bw intraperitoneal, 20% alcohol, Fig. 3): statistically significant lower amount of alcohol | amount of consumed alcohol in the 20 hours post injection after a 10 day abstinence period ([1]; access to alcohol blocked for 10 days, treated as previously (10 mg/kg bw i.p.), Fig. 4): statistically significantly lower amount of alcohol | motivation to drink alcohol (number of alcohol drinking attempts) [2]: reduces the motivation to drink alcohol | solubility [3]: well soluble | toxicity [4]: non-toxic | suppressing compulsive behavior [5]: effective in suppressing compulsive behavior
